{"source": "ChEMBL document CHEMBL1159277", "about": "“Sesquiterpene/quinol from a New Zealand liverwort, Riccardia crassa” (J Nat Prod, 1995)", "key": {"[1]": {"test_system": "Candida albicans", "assay": "Antifungal activity against Candida albicans at 60 ug/disk", "assay_type": "functional, organism-based"}, "[2]": {"test_system": "P388", "assay": "Cytotoxicity against mouse P388 cells", "assay_type": "functional, cell-based"}, "[3]": {"test_system": "Trichophyton mentagrophytes", "assay": "Antifungal activity against Trichophyton mentagrophytes at 60 ug/disk", "assay_type": "functional, organism-based"}}, "note": "Calls of active or inactive are those of the source. No cut-off for these calls is given here."}
{"smiles": "CC(C)=C/C=C/[C@@]1(C)CCC[C@]2(C)Oc3ccc(O)cc3C[C@@H]12", "note": "[RICCARDIPHENOL C]", "values": [{"measurement": "Activity", "setting": "[1]", "result": "inactive"}, {"measurement": "IC50", "setting": "[2]", "result": "> 25", "unit": "µg/mL"}, {"measurement": "Activity", "setting": "[3]", "result": "inactive"}]}
